According to ChEMBL document CHEMBL4422633, “Antioxidant-Inspired Drug Discovery: Antitumor Metabolite Is Formed in Situ from a Hydroxycinnamic Acid Derivative upon Free-Radical Scavenging” (J Med Chem, 2019):
Activity calls are given as the source filed them. The rule behind the calls is not given here.

Legend:
NCI-H460 [1] = test: Induction of apoptosis in human NCI-H460 cells assessed as viable cells at 10 uM after 24 hrs by Annexin V/propidium iodide-staining based flow cytometry (reference value: 96.49 +/- 0.96%); format: functional; details: NCI-H460, 24 h, read-out: Activity
[2] = target: Serine/threonine-protein kinase Chk2 (Homo sapiens) (UniProt O96017); test: Induction of CHK2 phosphorylation at T68 in human MCF7 cells at 10 uM pretreated for 30 mins followed by 10 J/m'2 irradiation and measured after 1 hr by Western blot analysis; format: cell-based
NCI-H460 [3] = test: Induction of apoptosis in human NCI-H460 cells assessed as necrotic cells at 10 uM after 24 hrs by Annexin V/propidium iodide-staining based flow cytometry (reference value: 2.13 +/- 0.02%); format: functional
HaCaT [4] = test: Induction of ROS generation in human HaCaT cells assessed as increase DHE positive cells at 10 uM after 24 hrs by DHE-staining based flow cytometry; format: cell-based
MCF7 = test: Cytotoxicity against human MCF7 cells assessed as reduction in cell viability after 72 hrs by MTT assay; format: functional, cell-based; details: MCF7, 72 h
SiHa = test: Cytotoxicity against human SiHa cells assessed as reduction in cell viability after 72 hrs by MTT assay; format: functional, cell-based
NCI-H661 [5] = test: Cytotoxicity against human NCI-H661 cells assessed as reduction in cell viability after 72 hrs by MTT assay; format: functional, cell-based; details: NCI-H661, 72 h
A549 = test: Induction of apoptosis in human A549 cells assessed as early apoptotic cells at 10 uM after 24 hrs by Annexin V/propidium iodide-staining based flow cytometry (reference value: 0.48 +/- 0.01%); format: functional
NCI-H460 [6] = test: Induction of apoptosis in human NCI-H460 cells assessed as early apoptotic cells at 10 uM after 24 hrs by Annexin V/propidium iodide-staining based flow cytometry (reference value: 0.45 +/- 0.01%); format: functional
[7] = Induction of apoptosis in human HaCaT cells assessed as viable cells at 10 uM after 24 hrs by Annexin V/propidium iodide-staining based flow cytometry (reference value: 95.63 +/- 3.83%); format: cell-based; details: read-out: Activity
NCI-H661 [8] = test: Induction of ROS generation in human NCI-H661 cells assessed as increase DHE positive cells at 10 uM after 24 hrs by DHE-staining based flow cytometry; format: functional, cell-based
[9] = Induction of apoptosis in human NCI-H460/R cells transfected with MDR assessed as necrotic cells at 10 uM after 24 hrs by Annexin V/propidium iodide-staining based flow cytometry (reference value: 3.17 +/- 0.13%); format: functional
NCI-H460 [10] = test: Cytotoxicity against human NCI-H460 cells assessed as reduction in cell viability after 72 hrs by MTT assay; format: functional, cell-based; details: NCI-H460, 72 h
[11] = Induction of apoptosis in human NCI-H460/R cells transfected with MDR assessed as late apoptotic cells at 10 uM after 24 hrs by Annexin V/propidium iodide-staining based flow cytometry (reference value: 0.84 +/- 0.01%); format: functional
HaCaT [12] = test: Induction of DNA damage response in human HaCaT cells assessed as increase in H2AX expression at 10 uM after 24 hrs by alexa fluor 488-staining based flow cytometry; format: cell-based

Chain of Serine/threonine-protein kinase Chk2 (Homo sapiens) (O96017 whole entry): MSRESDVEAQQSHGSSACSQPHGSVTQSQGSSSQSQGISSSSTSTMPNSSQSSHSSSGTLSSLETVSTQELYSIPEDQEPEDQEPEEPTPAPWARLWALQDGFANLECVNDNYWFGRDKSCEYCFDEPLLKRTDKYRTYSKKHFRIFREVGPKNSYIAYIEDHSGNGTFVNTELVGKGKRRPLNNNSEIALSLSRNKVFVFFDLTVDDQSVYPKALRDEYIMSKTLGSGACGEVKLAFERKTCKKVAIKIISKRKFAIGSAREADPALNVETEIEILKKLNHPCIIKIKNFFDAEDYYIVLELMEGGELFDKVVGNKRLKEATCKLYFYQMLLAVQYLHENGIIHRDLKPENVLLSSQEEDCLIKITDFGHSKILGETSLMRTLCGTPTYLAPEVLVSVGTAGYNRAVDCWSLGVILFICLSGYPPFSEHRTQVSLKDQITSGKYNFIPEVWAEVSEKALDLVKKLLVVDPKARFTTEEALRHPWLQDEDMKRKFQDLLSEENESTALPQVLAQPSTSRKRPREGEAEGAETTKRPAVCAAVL

- Activity [2]: Active
SMILES: COC(=O)/C=C/C1(O)C=CC(=O)C=C1
- viability at 10 µM (NCI-H460 [1]): 89.1%
- Activity (NCI-H460 [3]): 7.31%
- Activity (HaCaT [4]): Non-Toxic
- IC50 (MCF7): 6.22 µM
- IC50 (SiHa): 8.89 µM
- IC50 (NCI-H661 [5]): 1.44 µM
- Activity (A549): 0.72%
- Activity (NCI-H460 [6]): 0.21%
- viability at 24 h, 10 µM [7]: 91.5%
- Activity (NCI-H661 [8]): Active
- Activity [9]: 7.51%
- IC50 (NCI-H460 [10]): 1.85 µM
- Activity [11]: 2.34%
- Activity (HaCaT [12]): Non-Toxic
